From US20260335277A1, “CHLOROTONIL DERIVATIVES” (priority 2023, published 2026)
≈ marks a conversion by molar mass, not a printed value.

Legend:
Aqueous solubility = type: physicochemical
Description: (§1) Complementing the toxicity profiling, ADME properties of the lead dehalogenil were determined. This had not been possible for the first generation frontrunner ChB1-Epo2 or the natural product ChA because of their poor limit of detection. […] Across species (mouse, rat, human), metabolic stability is high while plasma stability is moderate. Besides, no hemolysis and no inhibition of the metabolically important enzyme CYP3A4 was observed by both dehalogenil and ChA. Plasma protein binding (PPB) is >99.4% in all species.

[1] = system: clinical isolates from Gabon; details: read-out: median IC50; cited from earlier work
[2] = system: mature gametocytes (stages IV and V); details: stage IV-V gametocytes; cited from earlier work
Hemolysis = type: cell-based
Description: as §1

parasitemia = details: mice, 4 day suppression test, 36-110 mg/kg oral, pilot experiments; cited from earlier work
[3] = system: S. aureus N315 (methicillin-resistant, MRSA); experiment: MIC testing (broth microdilution, EUCAST); type: cell-based; details: Staphylococcus aureus, MRSA
Description: (§2) Minimal inhibitory concentration (MIC) of the compounds in the present invention was determined using broth microdilution performed according to EUCAST guidelines (ISO20776-1:2019). S. aureus ATCC29213 and E. faecalis ATCC29212 served as quality control strains.

S. epidermidis DSM-28765 = experiment: MIC testing (broth microdilution, EUCAST); type: cell-based; details: Staphylococcus epidermidis, DSM28765, S. epidermidis DSM-28765; read-out: MIC S. epiderm.
Description: as §2

[4] = system: mature gametocytes (stages IV and V); experiment: Activity against mature gametocytes (stage IV-V), bioluminescence assay; type: cell-based, P. falciparum; details: Plasmodium falciparum
Description: Activity against gametocytes was determined using an in vitro bioluminescence assay as described previously (doi.org/10.1371/journal.pone.0035019).

CYP3A4 = experiment: Inhibition of CYP3A4; type: in vitro ADME
Description: as §1

zebrafish larvae = experiment: Toxicity in zebrafish larvae (MTC / IC50); type: in vivo
Description: For toxicity screening, zebrafish larvae were exposed three days post fertilization and monitored for 48 h until five days post fertilization. All malformations and pathophysiological phenotypes were noted and used to determine the inhibitory concentration (IC50) of the respective derivative against zebrafish larvae. The selectivity index (SI) was then calculated using the IC50 and the MIC of either S. aureus or P. falciparum 3D7.

[5] = system: chloroquine-sensitive laboratory strains of Plasmodium falciparum; details: cited from earlier work
Plasmodium falciparum = details: cited from earlier work
[6] = Toxicity in mouse models after multiple PO dosing; type: in vivo; details: multiple PO dosing at 100 mg/kg
Text: (§3) In addition, standard in vitro ADME parameters cannot be uniquely determined since chlorotonil A concentrations in these assays were always below the limit of detection. […] Both compounds (chlorotonil A and B1-Epo2) could be administered at low doses intravenously, however, only when dissolved in a vehicle which is not suitable for further development as part of preclinic studies as it contained high amounts of organic solvents (10 vol. % ethanol, 5 vol. % DMSO).

P. falciparum = P. falciparum infection models, per oral; type: in vivo; details: 50 mg/kg per oral
Text: as §3

[7] = system: chloroquine-resistant laboratory strains of Plasmodium falciparum; details: cited from earlier work
[8] = system: drug-sensitive P. falciparum 3D7; experiment: Drug sensitivity assay, asexual stages (HRP2 ELISA, 72 h); type: cell-based; details: Plasmodium falciparum, mean ± SD, read-out: chloroquine IC50
Description: (§4) Drug sensitivity assays of asexual plasmodium stages were carried out as described before (doi: 10.1128/AAC.49.8.3575-3577.2005). Briefly, the drugs were distributed in a 3-fold serial dilution in 96-well plates. Synchronized ring-stage parasites were diluted to a parasitemia of 0.05% with O Rh+ erythrocytes incomplete culture medium and seeded at a hematocrit of 1.5% in a total volume of 225 μL per well. Thereafter, the plates were incubated at 5% CO2, 5% O2, at 37° C. for 72 h, then they were frozen and thawed three times. The growth inhibition of P. falciparum was measured through an enzyme-linked immunosorbent assay (ELISA) for histidine-rich protein 2 (HRP2) using a microplate reader.

[9] = system: chloroquine-resistant P. falciparum; experiment: as above; type: cell-based; details: Plasmodium falciparum; chloroquine-resistant P. falciparum Dd2; mean ± SD
Description: as §4

CC1=C[C@@H](C)[C@H]2[C@@H]3C(=O)C(Cl)(Cl)C(=O)[C@H](C)C(=O)O[C@@H](C)/C=C/C=C\[C@@H](C)[C@@H]3C=C[C@@H]2C1 [ChA, reference compound]
water solubility (Aqueous solubility): poor water solubility
IC50 [1]: 15.2 nM
gametocytocidal activity compared with other tested compounds [2]: superior activity to all other tested compounds in this assay, besides epoxomicin
hemolysis (Hemolysis): no hemolysis
reduced parasitemia (parasitemia): > 90%
MIC [3]: 0.05 µg/mL (≈ 0.104 µM)
MIC (S. epidermidis DSM-28765): 0.05 µg/mL (≈ 0.104 µM)
IC50 [4]: 9.5 ± 3 nM
inhibition of CYP3A4 (CYP3A4): no inhibition
toxicity effects in zebrafish larvae models (zebrafish larvae; comparative studies): cardiotoxic, hepatotoxic and developmental toxicity effects
IC50 in zebrafish larvae (zebrafish larvae; exposed 3 days post fertilization, monitored 48 h): 1090 nM
IC50 [5]: 9 nM
development of resistant parasites in vitro by drug pressure (Plasmodium falciparum): not possible to develop resistant parasites in vitro
toxicity in mouse models [6]: general adverse effects, and cardio- and hepatotoxicity
efficacy in P. falciparum infection model (cure) (P. falciparum): full cure
IC50 [7]: 18 nM

CCN(CC)CCCC(C)Nc1ccnc2cc(Cl)ccc12 (stereo not drawn) [Chloroquine]
IC50 [8]: 7.4 nM
IC50 [9]: 226 ± 76 nM
